Among the data in a melting point compilation (Tetko et al.; mined from patent text by program, amines drawn as free bases though some values may be those of a salt) are melting point values, retold here.

On to `O=[N+]([O-])c1cn2c(n1)O[C@@H](COc1ccc(N3CCC(COc4ccc(C(F)(F)F)cc4)CC3)cc1)C2`, for which the melting point – broadly, the temperature, or range, at which the solid turns liquid – was 175 to 180 °C. The compound `CCCCCC(CC(=O)O)c1cc(C(=O)OC)c(OC)cc1OC` (centres undefined) showed a melting point of 106 to 107 °C. The compound `Cc1cc(C)c(O)cn1` gave a melting point of 146 to 148 °C. Regarding `COCCc1nc2c(N)nc3ccccc3c2n1CC1(O)CCCCC1`, the melting point was in the range of 189 to 191 °C.

Take `COc1ccc(C=Cc2oc3ccc(Br)cc3c2C(C)=O)cc1`: the melting point was 163 to 165 °C.

Compound `CC1(C)CC(Oc2ccc(O)nn2)c2cc(C#N)ccc2O1` (centres undefined) had a melting point of 221 to 224 °C. Compound `CCCCCn1cc(C(=O)O)c(=O)c(I)c1C` yielded a melting point of 154 °C. Compound `c1cc(OCC2CO2)c2nsnc2c1` (centres undefined) had a melting point of 65 to 67 °C.

On to `Oc1ccc(OCc2ccccc2)c(F)c1`, for which the melting point is 80 to 82 °C.

Take `COC(=O)c1ccc2c(c1)CN(c1c(F)cc3c(=O)c(C(=O)O)cn(-c4ccc(F)cc4)c3c1F)C2`: the melting point lay in the range of 236 to 240 °C. Regarding `Sc1nc(CCCc2cc(Cl)cc(Cl)c2)c[nH]1`, the melting point lay in the range of 98 to 99 °C. On to `NCCc1ccc(-n2nc(C(F)(F)F)cc2C(F)(F)F)cc1`, for which the melting point stood at 54 °C.

On to `CCCCCCCCCCCCCCCNC(=O)OCC(CO)OC` (centres undefined), for which the melting point was in the range of 42.5 to 43 °C. The compound `COC1=C(OC)C(=O)C(CCCCCCCCCC(=O)N[C@@H](CCCCN)C(=O)O)=C(C)C1=O` came in with a melting point of 107 °C.

Take `CCOC(=O)C(=O)Nc1ccc(C)cc1[N+](=O)[O-]`: the melting point is 126 °C. On to `Fc1cc(OC23CC4CC(CC(C4)C2)C3)ccc1N1CCCC1`, for which the melting point fell in the range of 99 to 106 °C. On to `CCOC(=O)CN(Cc1cc(-n2cc(C)nc2C)ccc1[N+](=O)[O-])C(=O)C(F)(F)F`, for which the melting point was in the range of 172 to 176 °C. The compound `Cn1nc(C=NO)nc1NCCCOc1cccc(CN2CCCCC2)c1` had a melting point of 173 to 174 °C. On to `CNc1ccc(NC(=O)OC2CCCC2)cc1C(Cc1ccc(C(=O)OC)cc1OC)=NOC(C)=O`, for which the melting point is 124 to 126 °C. `O=C(NO)[C@H]1CN(c2ccc(N3CCOCC3)c(F)c2)C(=O)O1` had a melting point of 141 to 143 °C. In turn, `CC1(C)CC(C(O)CNc2nc(NCC(O)C3CC(C)(C)NC(C)(C)C3)nc(NCC(O)C3CC(C)(C)NC(C)(C)C3)n2)CC(C)(C)N1` (centres undefined) registered a melting point of 176 to 178 °C.

As to `CC(O)(c1cccnc1)C1CCN(C[C@@]23C[C@@H](c4ccccc42)c2ccc(Cl)cc23)CC1` (single isomer, unassigned), the melting point was in the range of 87 to 93 °C. With `COc1cc2cc(-c3cc(C)c(O)c(C)c3)[nH]c(=O)c2c(OC)c1CN1CCOCC1`, the melting point was 158 to 161 °C. Turning to `Cc1nc(-n2cnn(Cc3ccc(F)cc3)c2=O)sc1C(=O)NCc1cc[nH]n1`, the melting point was in the range of 178 to 179 °C.

`COc1ccc(C(=O)c2oc3cccc(O)c3c2C)cc1` came in with a melting point of 192 to 195 °C.

As to `CC(C)(C)C(O)(Cc1ccccc1)C(Cn1ccnc1)Oc1ccc(Cl)cc1` (centres undefined), the melting point fell in the range of 179 to 181 °C. The result for `CCOC(=O)c1cc2c(Br)c(Br)oc2nc1C(=O)OCC` reads 96 to 98 °C. As to `c1ccc(C2COc3ccccc3C2)cc1` (centres undefined), the melting point fell in the range of 54 to 56 °C. `CC(ON(C(C)(C)CO)C(C)(C)CO)c1ccccc1` (centres undefined) came in with a melting point of 79 to 81 °C.

`Oc1cccc(Cc2cnc3c(-c4cc(-c5ccccc5)cs4)cnn3c2O)c1` showed a melting point of 235 to 237 °C.

Consider `CCN(CC)CC1CCCCN1CCNC(=O)N1c2ccccc2NC(=O)c2cccnc21` (centres undefined), for which the melting point lay in the range of 146 to 148 °C. The result for `C=CCN(C)C(=O)/C=C/CSc1nc(N)cc(Cl)n1` reads 140 to 142 °C; that for `CCc1nc(NC(=O)C2=C(O)c3ccc4ccccc4c3S(=O)(=O)N2C)sc1C`, 233 to 234 °C. As for `COc1cccc2sc(NC(=O)CO)nc12`, the melting point was in the range of 193 to 195 °C. Take `S=C1CN=C(c2ccccn2)c2cc(I)ccc2N1`: the melting point worked out at 242 °C. Take `COC(=O)Nc1nc2ccc(Oc3ccccn3)cc2[nH]1`: the melting point was in the range of 246 to 253 °C.

Compound `O=C1CCCC(CN2CCN(c3ccccn3)CC2)C1` (centres undefined) had a melting point of 86 to 90 °C. Consider `CN(CC(=O)C(Cc1cccnc1)NC(=O)c1ccccc1)C(=O)N1CCCC1C(=O)O` (centres undefined), for which the melting point is 92 to 120 °C. `CC1(C)C=Cc2c(ccc3c2C=CC(=O)C3=O)O1`: the melting point fell in the range of 189 to 193 °C. In turn, `CN(C)C(=N)c1c(Cl)cc(N=Cc2ccc(N(C)C)cc2F)cc1Cl` displayed a melting point of 127 to 128 °C. Take `CCOc1nn(-c2ccc(C(F)(F)F)cn2)cc1CCCOc1ccc(CCC(=O)O)cc1OC(C)C`: the melting point is 93 to 94 °C. `COc1cc(CCNc2ncnc3scnc23)ccc1Oc1c(F)cnc(C(F)(F)F)c1F` displayed a melting point of 108 to 112 °C. The result for `COC(=O)CCc1ccccc1Cc1ccccc1C(=O)O` reads 123 to 126 °C; that for `O=Cc1c2ccc(Cl)cc2c(Cl)c2ccc(Cl)cc12`, 269 to 271 °C; that for `NS(=O)(=O)c1ccc(-c2cccn2-c2ccc(Cl)cc2)cc1`, 179 to 181 °C. The same measure for `CC(=NN(c1ccccc1)c1ccccc1)c1ccccn1`: 84 °C; for `c1ccc(-n2nnc3ccc(Cn4ccnc4)cc32)cc1`: 110 °C. The compound `O=C(CC(O)C(=O)O)c1ccc(C(F)(F)F)cc1` (centres undefined) displayed a melting point of 118 to 120 °C. The same measure for `[N-]=[N+]=NCc1cc(Cl)c(C(=O)c2ccc(Cl)cc2)c(Cl)c1`: 50 to 55 °C; for `COC(=O)Cc1cc(O)nn1C`: 147 to 148 °C; for `O=C(O)c1cn(-c2ccc(Br)cc2)c(-c2ccc(Cl)cc2Cl)n1`: 138 to 142 °C. In turn, `CN(C)C(=O)C1CCCN(c2cc3ccccc3c(=O)[nH]2)C1` (centres undefined) displayed a melting point of 187 to 188 °C. Turning to `O=Cc1c2ccccc2c(CO)c2ccccc12`, the melting point is 182 to 184 °C. In turn, `O=C(NCC(=O)c1ccco1)c1ccc(F)cc1` gave a melting point of 153 to 155 °C.

Compound `CC(C)(C)OC(=O)Nc1sc(-c2cncc(F)c2)nc1I` gave a melting point of 148 to 149 °C. In turn, `CC(C)C[C@H](NC(=O)N1CCCCCC1)C(=O)N[C@](C)(Cc1ccc(OCc2ccccc2)cc1)C(=O)OC(C)(C)C` displayed a melting point of 46 to 49 °C. In turn, `O=C(/C=C/c1ccc(Sc2ccccc2[N+](=O)[O-])c(Cl)c1Cl)N1CCOCC1` showed a melting point of 210 to 213 °C. The same measure for `Cn1nc(-c2c(Cl)cccc2Cl)nc1-c1sc(Br)c(Cl)c1Cl`: 197 to 199 °C; for `O=C(O)CCCc1cnoc1-c1ccccc1`: 67 to 68 °C; for `CCNC(=O)C1CCN(Cc2cnc3cc(NC(=O)c4ccc(-c5ccc(F)cc5)cc4)c(C)cc3c2)CC1`: 254 °C. With `Cc1cc(CC(=O)O)cc2c1NC(C(F)(F)F)CC2` (centres undefined), the melting point is 135 to 136 °C.

`CC1CCN(c2c(F)c(N)c3c(=O)c(C(=O)O)cn(C4CC4)c3c2F)CC(C)(C)C1` (centres undefined) displayed a melting point of 148 to 150 °C. The same measure for `COc1ccc(C2CNC(=O)O2)cc1OC` (centres undefined): 114 to 117 °C; for `COc1cc2c(cc1C(=O)Cl)nnn2C(C)=O`: 170 °C.
